For the test, the system named is CEM cells HIV-1 protection, formazan growth assay. In words: NCI AIDS Antiviral Assay. The note with it: for IC50: measured here: growth of uninfected CEM cells. A digest of the protocol:
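Category rules: moderately active means at least 50% protection on retest, and confirmed active means 100% protection reproducibly. The underlying data came from a formazan growth assay in HIV-1-infected CEM cells.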

Active and inactive are the calls of the source.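 Rule for the calls: active = compounds giving half or more protection of infected cells from virus-caused growth loss, again on retest; inactive = the rest.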 Where a SMILES comes first, the peptide text is derived from it. Bridges are numbered along the chain shown (N, C = ends). Roman numbers before positions name the chains, in order.

As usually defined, the EC50 is the midpoint of the concentration-response curve. Usually IC50 stands for the concentration at which inhibition is half-maximal. For `Cc1ccc(/C=C/C(=O)c2sc(-c3nc(C)c(C(=O)/C=C/c4ccc(C)cc4)s3)nc2C)cc1`, the EC50 is over 38.9 µM and the IC50 is over 38.9 µM.

As for `Cc1cn(C2CC(/[N+]([O-])=N\Nc3ccc([N+](=O)[O-])cc3)C(CO)O2)c(=O)[nH]c1=O` (configuration not stated), the EC50 was over 200 µM. Consider `CC(C)c1cccc(C(C)C)c1NC(=O)C(=O)C(C(=O)c1ccccc1-c1ccccc1)C1OC(=O)c2ccccc21` (configuration not stated), for which the EC50 was over 64.6 µM and the IC50 came to 25.1 µM. In the case of `Cc1ccc(N(C)S(=O)(=O)c2ccccc2)cc1`, the EC50 was over 145 µM and the IC50 worked out at 67.6 µM.

With `C#Cc1ccccc1N1C(=O)C=CC1=O`, the EC50 is over 251 µM and the IC50 was over 251 µM. `Nc1ccc(/C=C/c2ccc(NC(=O)c3cc(S(=O)(=O)O)c4cccnc4c3O)cc2S(=O)(=O)O)c(S(=O)(=O)O)c1`: the EC50 is 58.9 µM and the IC50 was over 200 µM. `CC(=O)OCC1OC([n+]2c([O-])cc(=O)n3ccsc32)C(OC(C)=O)C1OC(C)=O` (configuration not stated): the EC50 is over 589 µM and the IC50 was over 589 µM. With `S=c1cn[nH]c2ccccc12`, the EC50 is over 661 µM and the IC50 was 170 µM.

With `N#Cc1cc2c(n(NS(=O)(=O)c3ccccc3)c1=O)CCCCC2`, the EC50 is over 200 µM and the IC50 is over 200 µM. Consider `CCOC(=O)c1cc(/C=C/C(C)=C/C(=O)OC)n(C)c1C`, for which the EC50 is over 24.5 µM and the IC50 is over 24.5 µM. `CO[C@@]12CC(=O)/C(=C(O)\C=C\c3ccccc3)C(=O)[C@]1(OC)Cc1ccccc1O2`: the EC50 is over 17.8 µM and the IC50 is 15.5 µM.

Consider `CC(=O)OCC1OC(n2c(=O)[nH]c(=O)c3n[nH]nc32)C(OC(C)=O)C(OC(C)=O)C1OC(C)=O` (configuration not stated), for which the EC50 was over 269 µM and the concentration for half-maximal inhibition (IC50) was over 269 µM. As to `CN(C)c1ccc(/C=c2\sc3nc4ccccc4n3c2=O)cc1`, the EC50 was over 0.851 µM and the IC50 was over 0.851 µM. On to `CCc1c(O)c2c(c(O)c1C(C)=O)C(=O)c1c(cc(O)c(C(=O)O)c1C(=O)O)C2=O`, for which the EC50 was over 33.1 µM and the IC50 was over 33.1 µM.

Turning to `O=C(CC(=O)Nc1ccccc1Cl)NNC(Sc1ccccc1)c1cc(N=Nc2ccc(Br)cc2)ccc1O` (configuration not stated), the EC50 is over 100 µM and the IC50 came out at 1.91 µM. The matching figures for `NC(CSSCC(N)C(=O)NC(Cc1ccc(O)cc1)C(=O)O)C(=O)NC(Cc1ccc(O)cc1)C(=O)O` (stereo not drawn) (I: H-Cys-Tyr-OH / II: H-Cys-Tyr-OH; disulfide I:1-II:1; configuration not given here): over 200 µM and over 200 µM. For `CCOC(=O)CSc1nc(N)c2c(-c3ccc(OC)c(OC)c3)c3c(nc2n1)CCCC3`, the EC50 is over 200 µM and the IC50 is over 200 µM. Turning to `CN(C)CC(/C(Cc1ccccc1)=N\NC(=S)NN)c1ccccc1` (configuration not stated), the EC50 is over 35.5 µM and the IC50 is over 35.5 µM. `CCCCNCCC(SSSC(CCNCCCC)c1ccc(Cl)cc1)c1ccc(Cl)cc1` (configuration not stated): the EC50 was over 200 µM and the IC50 stood at 3.47 µM. For `COC1/C=C/OC2(C)Oc3c(C)c(O)c4c(O)c(c(/C=N/N5C(C)CN(Cc6ccccc6O)CC5C)c(O)c4c3C2=O)NC(=O)/C(C)=C\C=C\C(C)C(O)C(C)C(O)C(C)C(OC(C)=O)C1C` (configuration not stated), the EC50 was over 200 µM and the IC50 was found to be 9.55 µM. Regarding `O=[N+]([O-])c1ccc(-c2ccc(-c3csc(Nc4ccccc4)n3)o2)cc1`, the EC50 is over 37.2 µM and the 50% inhibitory concentration (IC50) was found to be 6.76 µM. Regarding `Cc1ccc(NC(=O)CC/C(CC(=O)C(C)(C)C)=N/Nc2nnc(C)n2N)cc1C`, the EC50 is over 87.1 µM and the IC50 was over 87.1 µM.

Regarding `COc1nc(N)c(C#N)c(C#N)c1C#N`, the EC50 was over 200 µM and the IC50 was over 200 µM. With `CCN(CC)c1c(C(C)(C)C)c(=O)n2ccsc2c1OC(C)=O`, the EC50 is over 200 µM and the IC50 was 32.4 µM. With `CCc1ccccc1NC(=O)C(=O)C1C(=O)N(c2ccccc2)N=C1N` (configuration not stated), the EC50 was over 708 µM and the IC50 was found to be 224 µM. Consider `N#CC(C#N)=Cc1ccc(SCc2ccc(Cl)cc2)cc1`, for which the EC50 is over 200 µM and the IC50 came out at 135 µM.

On to `C#CCOCn1cnc2ncnc(N)c21`, for which the EC50 is over 1230 µM and the IC50 was over 1230 µM.

Regarding `Cc1ccc(C2(O)CSC(=NC34CC5CC(CC(C5)C3)C4)N2C(P(=O)(O)O)P(=O)(O)O)cc1` (configuration not stated), the EC50 is over 200 µM and the IC50 was 40.7 µM. On to `Cc1cc(C)nc(NS(=O)(=O)c2ccc(NCN3C(=O)c4ccccc4C3=O)cc2)n1`, for which the EC50 is over 200 µM and the IC50 turned out to be 110 µM. Take `Cc1cccc(N=Nc2ccc(O)c(CN(C)C)c2)c1`: the EC50 is over 200 µM and the IC50 is 34.7 µM.

As for `O=C(Nc1ccc(Cl)c(Cl)c1)C(=O)Nn1c(=S)[nH]c2ccccc2c1=O`, the EC50 is over 437 µM and the IC50 is 257 µM. For `CC(C(=O)O)[S+]1CCOCC1` (configuration not stated), the EC50 is 0.0631 µM and the IC50 is over 200 µM. For `CN1CN(c2ccccc2)C2(CCN(CCCC(=O)c3cccs3)CC2)C1=O`, the EC50 is over 200 µM and the half-inhibitory concentration (IC50) came to 38.9 µM. In the case of `[N-]=[N+]=CC(=O)OC1CCc2ccccc21` (configuration not stated), the EC50 is over 200 µM and the IC50 is over 200 µM.

Take `O=C(O)CSc1n[nH]c(/C=C/c2ccccc2)n1`: the EC50 is over 955 µM and the IC50 is over 955 µM. Take `O=C(c1ccccc1)c1cccc(C(=O)c2ccccc2)n1`: the EC50 was over 66.1 µM and the IC50 was over 66.1 µM. In the case of `CC1(C)C(=O)NC(=O)c2ccccc21`, the EC50 is over 200 µM and the IC50 was over 200 µM. As for `O=[N+]([O-])c1ccc(-c2cn(-c3ccc(Cl)cc3)cn2)cc1`, the EC50 is over 100 µM and the IC50 is over 100 µM. Take `N#Cc1cccc2c1Nc1ccccc1S2`: the EC50 is over 23.4 µM and the concentration for half-maximal inhibition (IC50) was over 23.4 µM. In the case of `COc1cc2c3c(c1)SC(c1ccccc1)C(=O)N3CCN2` (configuration not stated), the EC50 is over 200 µM and the IC50 was 14.1 µM. Regarding `CCCNC(=O)N(C)S(=O)(=O)c1ccc(Cl)cc1`, the outcome was inactive. On to `Cc1ccc(C)n1N1CCOCC1`, for which the EC50 was over 200 µM and the IC50 worked out at 115 µM. For `Cc1ccc2nc(CN3CCCC(O)C3)cc(=O)n2c1` (configuration not stated), in that order: over 200 µM and over 200 µM. For `FC1=C2C3CCC(C3)C2C1(F)F` (configuration not stated), the EC50 was over 200 µM and the IC50 is over 200 µM. As to `CCOC(=O)c1nc2ccc(C(F)(F)F)cc2nc1NCc1ccc(OC)cc1`, the EC50 is over 200 µM and the IC50 came to 38 µM. `CN(C)CC1CCCC(CN(C)C)C1=NOC(=O)c1ccccc1` (configuration not stated): the EC50 was over 200 µM and the IC50 was determined as 174 µM. On to `O=C(c1ccccc1)N1CCN2CCN=C(c3ccccc3)C21c1ccccc1` (configuration not stated), for which the EC50 was over 132 µM and the IC50 is over 132 µM.

On to `CC(=O)Nc1nc(Cl)cc(NCC2(CO)CCC2)n1`, for which the EC50 was over 200 µM and the IC50 was over 200 µM.

In turn, `O=[N+]([O-])c1ccc([As](=O)(O)O)c2ccccc12` registered an EC50 of over 200 µM and an IC50 of over 200 µM. As for `CC12CCC(=O)C=C1C=CC1C2CCC2(C)C1CCC21CCC(=O)O1` (configuration not stated), the EC50 is over 200 µM and the IC50 was determined as 83.2 µM.

In the case of `CN1CCC2(CC1)N=C1CCN(C)CC1S2` (configuration not stated), the EC50 was over 457 µM and the IC50 was determined as 87.1 µM. On to `CCSSc1ccccc1C(=O)NC(CC)CO` (configuration not stated), for which the EC50 is over 200 µM and the IC50 amounted to 5.01 µM. Turning to `NC(CS)=NCc1ccccc1`, the EC50 was over 200 µM and the IC50 was 33.1 µM.

Turning to `NC(CCOCCP(=O)(O)O)C(=O)O` (configuration not stated), the EC50 was over 200 µM and the IC50 is over 200 µM.

`Cc1nc2ccc(Cl)cc2c(-n2ccnc2)c1CCn1ccnc1`: the EC50 is over 200 µM and the IC50 amounted to 89.1 µM. In the case of `CN(C)CCC(/C=C/c1ccccc1)=N\Nc1ccccc1`, the result was inactive. In the case of `Cc1ccc(S(=O)(=O)Nn2c(O)c(C#N)c(-c3ccccc3)c(C#N)c2=O)cc1`, the EC50 was over 200 µM and the IC50 was over 200 µM. Consider `Brc1ccc(CCc2ncc[nH]2)cc1`, for which the EC50 is over 282 µM and the concentration for half-maximal inhibition (IC50) worked out at 174 µM.

In the case of `O=C1[C@@H]2C[C@@H](O)CN2C(=O)c2ccccc2N1CCCO`, the outcome was inactive. For `COC1(C)C(=O)N2C1N(C(=O)OC(C)(C)C)CC2(C)C` (configuration not stated), the EC50 was over 380 µM and the IC50 was over 380 µM. `O=C(Cn1c2ccc(Br)cc2c2nc3ccccc3nc21)N/N=C/c1ccccc1`: the EC50 is over 100 µM and the IC50 is over 100 µM.

`CC(C)(C)C1CC[C@H](O)[C@H]([C@H](O)CC2CC(=O)N(c3ccccc3)C(=O)C2)C1` (some centres not stated): the EC50 was over 200 µM and the IC50 was over 200 µM. As for `CC(=O)OCC1OC(n2c(C#N)cc(=O)[nH]c2=O)CC1OC(C)=O` (configuration not stated), the EC50 is over 200 µM and the IC50 was 57.5 µM. Consider `CCOC(=O)c1[nH]c2nc(SC)nc(NC)c2c1N`, for which the EC50 is over 200 µM and the IC50 was 129 µM.

Take `CC1OC(OC2C(O[C@H]3CC[C@@]4(C)C(=CC[C@H]5[C@@H]6C[C@@H]7O[C@]8(CC[C@@H](C)CO8)[C@@H](C)[C@@H]7[C@@]6(C)CC[C@@H]54)C3)OC(CO)C(O)C2OC2OC(CO)C(O)C(O)C2O)C(O)C(O)C1O` (some centres not stated): the EC50 was over 200 µM and the IC50 stood at 1.17 µM. As for `CC(C)CCN=c1cc2n(-c3ccc(Cl)cc3)c3ccccc3nc-2cc1Nc1ccc(Cl)cc1`, the outcome was inactive. For `CCCCN(CC)C(=O)C(=O)Cc1nc2ccc(C(=O)c3ccccc3)cc2[nH]c1=O`, the EC50 is over 17.4 µM and the IC50 was over 17.4 µM.

Take `NCc1ccc(-c2ccc(CN)s2)s1`: the EC50 is over 28.2 µM and the IC50 came out at 13.2 µM. For the compound `C#CC1(O)C(CO)OC(n2ccc(=O)[nH]c2=O)C1O[Si](C)(C)C(C)(C)C` (configuration not stated), the EC50 is over 200 µM and the IC50 was 27.5 µM.

Take `CN1C=C(C(N)=O)Cc2ccsc21`: the EC50 was over 1290 µM and the IC50 was 66.1 µM. `Brc1ccc(-c2nc(-c3ccc(Br)cc3)n(-c3ccccc3)n2)cc1`: the EC50 was over 200 µM and the IC50 is 93.3 µM.
